Assay results reported in paper PMC6550177, “Statuses of food-derived glutathione in intestine, blood, and liver of rat” (NPJ Science of Food, 2018).
Entries after “also recorded” stand apart in the source; their conditions may differ.

Assays:
[1] = Food-derived glutathione in washed intestine and liver after oral gavage of 13C-labeled compound (LC-MS/MS); settings: rat
Experimental: Rats were acclimatized for a week, divided into four groups, and were given 1 mL of glutathione-1-^13C (50 mg/kg body weight) or NAC-1-^13C (50 mg/kg body weight) solutions using an oral gavage.
Portions of the thoroughly washed intestines and livers were homogenized in the same weight of PBS using a BioMasher (Nippi, Tokyo, Japan). The obtained homogenates were then mixed with the same volumes of 10% (v/v) TCA-4% (v/v) 2-mercaptoethanol and allowed to stand for 30 min at 25°C. The supernatant was collected and used to determine the total amounts of glutathione and related peptides. Another set of intestines and livers were homogenized in the same volume of PBS containing 20 mM NEM and then allowed to stand for 10 min at 25 °C. The homogenate were further diluted with another three fold volumes of PBS without NEM, and mixed with the same volume of 10% (v/v) TCA. […] The precipitate was washed with the same weight of 10% TCA three times, and the protein-bound form of glutathione was extracted with the same weight of 10% TCA-4% 2-mercaptoethanol as described above.
The 5% TCA–2% 2-mercaptoethanol extracts (50 μL) were dried under vacuum to remove excess amounts of 2-mercaptoethanol; thereafter, 20 μL of an alkaline solution was added to neutralize the extracts and they were again dried under vacuum.
With NEM, glutathione disulfide was conjugated with two molecules of AccQs, and the resultant AccQ derivative of glutathione disulfide was subjected to the LC-MS/MS as described above.

[2] = rat
Experimental: (§1) All animals were treated and cared in accordance with the National Institutes of Health’s guidelines for the use of experimental animals. All experimental procedures were approved by the Animal Care Committee of Kyoto Prefectural University (No. KPU260400-260421). Seven-week-old Wister rats (body weight 200–220 g) were housed in a 12-h light-dark cycle and allowed free access to standard rat chow and water. […] The plasma was prepared by centrifugation at 800×g for 10 min at 4 °C. The liver and small intestines were taken from the rats. The intestines were flushed with about 40 mL of cold PBS to remove its contents. The blood in the liver was purged by infusing cold PBS into the portal vein. Samples were stored at −80 °C until use.
(§2) The plasma (100 μL) was mixed with three fold volumes of ethanol. The supernatant and precipitate obtained were harvested by centrifugation at 14,200×g at 4 °C for 10 min. The supernatant was referred to as the low-molecular-weight fraction of the plasma. Aliquots of the low-molecular-weight fraction (300 μL each) were dried under vacuum, and processed using two methods. Some dried aliquots were treated with 50 μL of 5% TCA-2% 2-mercaptoethanol solution for 30 min and used in determining the total glutathione and related peptides. Free and bound-form glutathione were bound to 2-mercaptoethnol.[6] Other dried aliquots of the fraction (300 μL) were treated with 50 μL of 20 mM NEM in PBS for 10 min. Only free glutathione bound to NEM, as NEM has no reducing activity. The reaction was terminated by adding 50 μL of 5% TCA solution. The NEM-treated fraction was used in determination of the reduced-form of glutathione and glutathione disulfide.
(§3) The ethanol precipitate of the plasma was further washed with 200 μL of 75% (v/v) ethanol twice. The residue was collected by centrifugation at 14,200×g at 4 °C. Protein-bound glutathione and related peptides were liberated from the residue by extracting with 100 μL of 5% TCA-2% 2-mercaptoethanol with occasional agitation for 30 min. The supernatant obtained after centrifugation was used to determine the protein-bound form of glutathione and related peptides.[6]
(§4) The 5% TCA–2% 2-mercaptoethanol extracts (50 μL) were dried under vacuum to remove excess amounts of 2-mercaptoethanol; thereafter, 20 μL of an alkaline solution was added to neutralize the extracts and they were again dried under vacuum. The residues were mixed with 20 μL of 20 mM HCl, 60 μL of the sodium borate buffer provided with the AccQ Tag Ultra Derivatization Kit, and 20 μL of 0.3% (w/v) AccQ acetonitrile solution and heated at 50 °C for 10 min to obtain their AccQ derivatives. Then, the reaction mixtures were diluted with adequate amounts of 5 mM sodium phosphate buffer (pH 7.4) containing 10% (v/v) acetonitrile and filtered using a 0.45-μm filter (Cosmonice filter W, Nacalai Tesque). The filtrates were subjected to LC-MS/MS using a 3200 QTRAP system (AB SCIEX, Framingham, MA) as previously described.[6]
(§5) Without 2-mercaptoethanol, the sulfhydryl group of glutathione was conjugated with NEM in PBS. The NEM-glutathione derivative was directly subjected to LC-MS/MS to determine the reduced-form of glutathione. With NEM, glutathione disulfide was conjugated with two molecules of AccQs, and the resultant AccQ derivative of glutathione disulfide was subjected to the LC-MS/MS as described above. Reduced-form glutathione (2 nmol) was added to the ethanol-soluble fraction of plasma from portal blood.

[3] = mice, 12 weeks supplementation, 50 mg/kg body weight, preliminary experiment
[4] = test system: peroxisome proliferator-activated receptor gamma coactivator 1-alpha (PGC-1α); settings: cited from earlier work
[5] = patients with non-alcoholic fatty liver disease, oral administration; cited from earlier work
[6] = humans, dietary supplementation; cited from earlier work
[7] = oral administration, vs placebo controls; cited from earlier work
[8] = animals, oral administration; cited from earlier work
[9] = oral administration, vs placebo controls; cited from earlier work; remark: listed apart in the source
in vivo = settings: Wister, rat, po, 50 mg/kg, 60 min after ingestion
Experimental: as §1, §2, §3, §4, §5

With `N[C@@H](CCC(=O)N[C@@H](CS)[13C](=O)NCC(=O)O)C(=O)O` [glutathione-1-^13C, Glutathione-1-^13C] the “Food-derived Cys-Gly and γ-Glu-Cys in intestines and liver” value ([1]; in vivo, po) was “negligible amounts”, the “Food-derived glutathione content in intestine” value ([1]; in vivo, po, 50 mg/kg) was “approximately 60 μmol/kg” and the “Food-derived glutathione content in liver” value ([1]; in vivo, po, 50 mg/kg) was ~300 µmol/kg. The “Food-derived Cys-Gly and γ-Glu-Cys in plasma” value ([2]; in vivo, po) was “significant amounts” and the “Status (form) of food-derived glutathione in blood plasma” value ([2]; in vivo, po, 50 mg/kg) was “conjugated with proteins and low-molecular-weight thiol compounds”.
In the case of `CC(=O)N[C@@H](CS)[13C](=O)O` [NAC, N-acetylcysteine-1-^13C], the “Food-derived glutathione in intestines and liver after ingestion of NAC” value ([1]; oral 50 mg/kg) is reported as “present” and the “NAC-derived glutathione (and fragment peptides) in blood plasma” value ([2]; oral 50 mg/kg, within 120 min, 50 mg/kg) is reported as “not detected; also recorded: no significant amounts”.
In the case of `N[C@@H](CCC(=O)N[C@@H](CS)C(=O)NCC(=O)O)C(=O)O` [glutathione, γ-L-glutamyl-L-cysteinyl-glycine], the “Liver glutathione levels compared to controls” value [3] is listed as “did not significantly increase”, the “PGC-1α / mitochondrial biogenesis” value ([4]; previous animal experiment) is listed as “enhances mitochondrial biogenesis by increasing” and the “Plasma alanine aminotransferase and free fatty acid levels” value [5] is listed as “significantly reduce”. The “Protein-bound glutathione in the blood plasma” value [6] was “increase”, the Exercise-induced fatigue [7] was “reduce” and the Liver glutathione level [8] was “increase the liver glutathione level”. For the same compound, the “Food-derived Cys-Gly, γ-Glu-Cys and glutathione disulfide in the liver without blood” value [1] was “negligible amounts”, the “Food-derived glutathione as share of total glutathione in the liver” value ([1]; 120 min after administration at 50 mg/kg) was “approximately 5%” and the “Food-derived glutathione in protein-bound fraction, plasma from portal vein vs inferior vena cava” value ([2]; after oral glutathione) was “insignificantly different”. The “Reduced-form glutathione and glutathione disulfide in low-molecular-weight fraction of plasma from portal vein” value ([2]; after oral glutathione, LC-MS/MS multi-reaction monitoring) was “no reduced-form glutathione and glutathione disulfide were detected”, the “Melanin indices on the skin” value [9] was “reduce melanin indices on the skin” and the concentration at 60 min (in vivo; Food-derived glutathione level in low-molecular-weight fraction of blood from hepatic portal vein) was ~400 nM. For the same compound, the concentration at 60 min (in vivo; Food-derived glutathione level in low-molecular-weight fraction of blood from inferior vena cava) was < 100 nM.
For vitamin E, the “Exercise-induced increase of PGC-1α” value [4] is given as “suppress”.
For `O=C1O[C@H]([C@@H](O)CO)C(O)=C1O` [vitamin C], the “Exercise-induced increase of PGC-1α” value [4] is listed as “suppress”.
